# Results: ChEMBL document CHEMBL2375345, “New antiprotozoal agents: their synthesis and biological evaluations” (Bioorg Med Chem Lett, 2013)
# Assays:
# Trypanosoma cruzi = test: Antiprotozoal activity against epimastigote form of Trypanosoma cruzi Tulahuen 2 assessed as parasite growth inhibition measured at day 5; format: functional, organism-based; conditions: Tulahuen 2, 120 h
# [1] = test system: Trypanosoma brucei brucei; test: Antiprotozoal activity against trypomastigote form of Trypanosoma brucei brucei 427 assessed as parasite growth inhibition; format: functional, organism-based
# [2] = test system: Trypanosoma brucei rhodesiense; test: Antiprotozoal activity against trypomastigote form of Trypanosoma brucei rhodesiense STIB900 assessed as parasite growth inhibition after 72 hrs by Alamar blue assay; format: functional, organism-based; conditions: STIB900, 72 h
# [3] = Cytotoxicity against human MRC5 cells assessed as cell viability after 7 days by Alamar blue assay; format: cell-based
# [4] = Selectivity index, ratio of CC50 for human MRC5 cells to IC50 for amastigote form of Leishmania infantum MHOM/MA(BE)/67; format: functional
# [5] = Selectivity index, ratio of CC50 for human MRC5 cells to IC50 for trypomastigote form of Trypanosoma brucei rhodesiense STIB900; format: functional
# [6] = Lipophilicity, log P of the compound; format: physicochemical; conditions: octanol/water
# Leishmania infantum = test: Antiprotozoal activity against amastigote form of Leishmania infantum MHOM/MA(BE)/67 infected in mouse peritoneal macrophages assessed as reduction of intracellular parasite burden after 5 days by Giemsa staining method; format: functional, organism-based; conditions: MHOM/MA(BE)/67, 120 h
# [7] = Selectivity index, ratio of CC50 for human MRC5 cells to IC50 for trypomastigote form of Trypanosoma brucei brucei 427; format: functional
# [8] = Selectivity index, ratio of CC50 for human MRC5 cells to IC50 for epimastigote form of Trypanosoma cruzi Tulahuen 2; format: functional
Structure (SMILES),IC50 (Trypanosoma cruzi) [µM],IC50 [1] [µM],IC50 [2] [µM],CC50 at 168 h [3] [µM],Ratio CC50/IC50 [4],Ratio CC50/IC50 [5],logP [6],IC50 (Leishmania infantum) [µM],Ratio CC50/IC50 [7],Ratio CC50/IC50 [8]
COc1ccccc1NC(=S)Nc1ccc2nc(Oc3ccc(F)cc3C(C)O)c(Cc3ccccc3)cc2c1 (stereo not given),4.33,1.79,0.53,16,5.22,32.31,7.86,5.28,,
COc1ccccc1NC(=O)NCC(O)COC1(C)c2ccccc2-c2c1c(OC)nc1ccc(Br)cc21 (stereo not given),2.5,8.23,1.88,5.31,0.56,2.82,4.84,9.51,0.64,2.12
COc1nc2ccc(Br)cc2c2c1C(C)(OCC(O)Cn1ccc(-c3cccc(C(F)(F)F)c3)n1)c1ccccc1-2 (stereo not given),5.35,2.31,1.25,24.1,4.74,19.29,7.5,5.08,10.43,4.5
COc1nc2ccc(Br)cc2c2c1C(C)(OCC(O)CN1CCN(Cc3ccccc3)CC1)c1ccccc1-2 (mixture of isomers),7.25,2.24,1.99,5.63,0.59,2.83,5.85,9.51,2.51,0.77
COc1nc2ccc(Br)cc2cc1C(c1ccccc1)n1cnc([N+](=O)[O-])c1 (stereo not given),6.96,2.16,0.44,64,1.25,145.45,,50.8,29.62,9.19
COc1ccc(NC(=S)Nc2ccc3nc(Oc4ccc(F)cc4C(C)O)c(Cc4ccccc4)cc3c2)cc1 (stereo not given),5.81,2.09,1.31,42.3,7.89,30.91,7.86,8.11,31.37,10.27
CC(C)(C)OC(=O)N1CCCC(C(=O)O/N=C2\c3ccccc3-c3c2c(C(F)(F)F)nc2ccc(Br)cc32)C1 (stereo not given),12.3,7.56,3.06,5.84,0.72,1.91,,8.11,0.77,0.47
CSCCC(NC(=O)OC(C)(C)C)C(=O)O/N=C1\c2ccccc2-c2c1c(N1CCN(c3ccccn3)CC1)nc1ccc(Br)cc21 (stereo not given),7.39,2.4,1.44,64,6.73,44.44,,9.51,26.66,8.66
OC(c1ccccc1)c1c(C(F)(F)F)nc2ccc(Br)cc2c1Br (stereo not given),8.07,7.52,5.94,1.51,0.19,0.25,6.26,8.11,0.2,0.19
CC1(O)c2ccccc2-c2c1c(-n1ccnc1)nc1ccc(Br)cc21 (stereo not given),1.39,18.8,5.93,11.5,0.9,1.93,3.86,12.7,0.61,8.23
CC(=O)OC1(C)c2ccccc2-c2c1c(-n1ccnc1)nc1ccc(Br)cc21 (stereo not given),0.93,29,7.11,32.2,1.52,4.53,4.09,21.1,1.11,34.65
COc1nc2ccc(Br)cc2c2c1C(C)(OC(=O)N(C)C)c1ccccc1-2 (stereo not given),7.42,8.23,5.28,64,1,12.12,4.91,64,7.77,8.62
O=[N+]([O-])c1ccc2nc(Oc3ccc(F)cc3C(O)CN3CCCCC3)c(Cc3ccccc3)cc2c1 (stereo not given),2,2.01,1.22,,1.29,8.8,,2.16,4.31,2.2
CC(O)c1cc(F)ccc1Oc1nc2ccc(NS(=O)(=O)c3cccc(C(F)(F)F)c3)cc2cc1Cc1ccccc1 (stereo not given),3.7,2.18,1.46,8,,,7.69,8.11,,
COc1nc2ccc(Br)cc2c2c1C(C)(OCC(O)CN1CCN(C(c3ccccc3)c3ccccc3)CC1)c1ccccc1-2 (mixture of isomers),5.85,2.04,1.64,17.6,2.16,10.7,7.56,8.11,8.6,3
CC(C)(C)OC(=O)NCC(=O)O/N=C1\c2ccccc2-c2c1c(N1CCN(c3ccccn3)CC1)nc1ccc(Br)cc21,6.82,6.05,1.2,64,12.6,53.33,,5.08,10.58,9.38
CC1(OCC2CO2)c2ccccc2-c2c1c(C(F)(F)F)nc1ccc(Br)cc21 (stereo not given),8.37,8.57,5.49,4,0.14,0.73,5.23,27.3,0.47,0.48
COc1cccc(N2CCN(CC(O)COC3(C)c4ccccc4-c4c3c(N3CCN(C(c5ccccc5)c5ccccc5)CC3)nc3ccc(Br)cc43)CC2)c1 (stereo not given),64,2.03,0.86,61.4,2.04,71.44,,30.1,30.26,0.96
CC(C)(C)OC(=O)N1CCCC1C(=O)O/N=C1\c2ccccc2-c2c1c(-n1ccnc1)nc1ccc(Br)cc21 (stereo not given),7.38,7.31,4.33,8,0.63,1.85,,12.7,1.09,1.08
CC(c1cc(F)ccc1Oc1nc2ccc(-n3cc(-c4ccccc4)nn3)cc2cc1Cc1ccccc1)n1ccnc1 (stereo not given),1.93,2.04,2.03,64,3.15,,7.91,20.3,30.18,
CC(NC(=O)OC(C)(C)C)C(=O)O/N=C1\c2ccccc2-c2c1c(N1CCN(c3ccccn3)CC1)nc1ccc(Br)cc21 (stereo not given),6.21,2.04,1.65,26.9,3.86,16.3,,6.96,13.19,4.33
COc1cccc(-c2ccn(CC(O)c3cc(F)ccc3Oc3nc4ccc([N+](=O)[O-])cc4cc3Cc3ccccc3)n2)c1 (stereo not given),6.01,2.4,2.08,64,,30.8,,8,,
CC(C)(C)OC(=O)NC(C(=O)O/N=C1\c2ccccc2-c2c1c(N1CCN(c3ccccn3)CC1)nc1ccc(Br)cc21)C(C)(C)C (stereo not given),7.87,2.16,1.36,35.6,6.29,26.17,,5.66,16.48,4.52
COc1cccc(NC(=S)Nc2ccc3nc(Oc4ccc(F)cc4C(C)O)c(Cc4ccccc4)cc3c2)c1 (stereo not given),14.7,2,0.53,64,8,,7.86,6.82,26.66,
COc1cccc(NC(=O)Nc2ccc3nc(Oc4ccc(F)cc4C(C)O)c(Cc4ccccc4)cc3c2)c1 (stereo not given),6.23,2.04,2.07,64,,30.18,6.72,8.11,,
CCCC(=O)O/N=C1\c2ccccc2-c2c1c(-n1ccnc1)nc1ccc(Br)cc21,2.38,8.17,5.14,8.23,1.37,1.6,,6.01,1,3.45
COc1ccc(-c2ccn(CC(O)c3cc(F)ccc3Oc3nc4ccc([N+](=O)[O-])cc4cc3Cc3ccccc3)n2)cc1 (stereo not given),64,2.12,0.71,,3.15,31.52,,20.3,31.37,33.16
